Test results taken from US12102638B2 (Urovant Sciences GmbH, priority 2017, dated 2024).
Values joined by “and” are separate entries in the source; they are usually repeats but may differ in a detail not shown here. Equal values may be shown once. Read-outs that look alike come from different tables or passages of the source.

Assays:
β2-AR = β2-AR (Homo sapiens, UniProt P07550); test: competition binding assay, membranes with recombinant β2-AR
human plasma proteins = test: plasma protein binding; assay type: in vitro ADME
[1] = single rising oral dose Phase 1 pharmacokinetics in healthy subjects; assay type: in vivo, human; details: for AUC(0-t): read-out: AUC0-24
Method: All subjects were healthy adults. […] Systemic exposures were greater than dose proportional up to 600 mg.

[2] = single-dose PK in patients with renal impairment; assay type: in vivo, human; details: for CL/F, geometric LS mean / Fe[urine]48 hr, geometric mean: single 100 mg
Description: The relationship between clearance and renal function was modeled using linear regression.

healthy subjects = test: thorough QT single oral dose study; assay type: in vivo, human
[3] = human, in vivo
[4] = drug interaction study of vibegron 75 mg and rifampin; details: for CL/F, geometric mean / V/F, geometric mean: single 75 mg
[5] = male, human, plasma, oral, 50 mg, single 50 mg, healthy young males
[6] = male, human, plasma, oral, 50 mg, single 50 mg, healthy young males, Japanese
[7] = Healthy Matched Control Subjects

Chain of β2-AR (P07550 whole entry): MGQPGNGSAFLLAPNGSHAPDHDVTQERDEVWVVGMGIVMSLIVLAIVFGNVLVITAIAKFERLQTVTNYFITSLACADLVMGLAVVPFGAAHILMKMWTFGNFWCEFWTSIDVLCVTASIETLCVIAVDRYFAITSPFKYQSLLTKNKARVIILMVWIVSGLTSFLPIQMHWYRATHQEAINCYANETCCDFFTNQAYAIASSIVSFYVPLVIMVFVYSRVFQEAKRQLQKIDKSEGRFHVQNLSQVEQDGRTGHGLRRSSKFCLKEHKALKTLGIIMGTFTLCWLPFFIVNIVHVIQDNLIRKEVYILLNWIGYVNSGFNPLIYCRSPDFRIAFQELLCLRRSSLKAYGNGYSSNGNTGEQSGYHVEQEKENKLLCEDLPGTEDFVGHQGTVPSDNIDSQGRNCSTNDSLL

Structure (SMILES): O=C(Nc1ccc(C[C@@H]2CC[C@H]([C@H](O)c3ccccc3)N2)cc1)[C@@H]1CCc2nccc(=O)n21 [vibegron, (6S)—N-[4-[[(2S,5R)-5-[(R)-hydroxy(phenyl)methyl]pyrrolidin-2-yl]methyl]phenyl]-4-oxo-7,8-dihydro-6H-pyrrolo[1,2-a]pyrimidine-6-carboxamide]
- binding to β2-AR (β2-AR): does not bind
- bound to human plasma proteins (human plasma proteins): approximately 49%
- unbound in plasma (human plasma proteins): 49%
- Cmax [1, 5]: 31.7 ± 35 ng/mL
- Cmax [1, 6]: 62.2 ± 20.4 ng/mL
- AUC(0-t) [1, 6]: 385 ± 136 ng·h/mL
- AUC(0-inf) ([1]; male, human, plasma, oral, 50 mg, single 50 mg, healthy young males, Japanese, read-out: AUC0-inf): 885 ± 241 ng·h/mL
- AUC(0-t) [1, 5]: 219 ± 123 ng·h/mL
- AUC(0-inf) ([1]; male, human, plasma, oral, 50 mg, single 50 mg, healthy young males, read-out: AUC0-inf): 551 ± 262 ng·h/mL
- t1/2, harmonic mean ± pseudo SD ([1]; single 20 mg, healthy young males): 64.2 ± 12.6 h
- t1/2, harmonic mean ± pseudo SD ([1]; single 50 mg, Elderly Male and Female): 92 h and 92.1 ± 15.9 h
- t1/2, harmonic mean ± pseudo SD ([1]; single 50 mg, healthy young males, Japanese): 64.4 ± 8.7 h
- t1/2, harmonic mean ± pseudo SD ([1]; single 100 mg, healthy young males): 72.8 ± 10.8 h
- AUC(0-inf) ([1]; single 150 mg, healthy young males): 2270 ± 911 ng·h/mL
- t1/2, harmonic mean ± pseudo SD ([1]; single 200 mg, healthy young males): 75.3 ± 9.1 h
- t1/2, harmonic mean ± pseudo SD ([1]; single 200 mg, healthy young males, Japanese): 58.4 ± 9.0 h
- t1/2, harmonic mean ± pseudo SD ([1]; single 300 mg, healthy young males, Japanese): 59.7 ± 9.2 h
- t1/2, harmonic mean ± pseudo SD ([1]; single 450 mg, healthy young males): 60.0 ± 9.4 h
- AUC0-inf higher compared to healthy matched control ([2]; mild renal impairment): 49%
- CLR reduced compared to healthy matched control ([2]; mild renal impairment): 39%
- Cmax higher compared to healthy matched control ([2]; mild renal impairment): 96%
- AUC0-inf higher compared to healthy matched control ([2]; moderate renal impairment): 106%
- CLR reduced compared to healthy matched control ([2]; moderate renal impairment): 65%
- Cmax higher compared to healthy matched control ([2]; moderate renal impairment): 68%
- mean increase in AUC compared to subjects with normal renal function ([2]; moderate renal impairment): 1.6 fold
- AUC0-inf higher compared to healthy matched control ([2]; severe renal impairment): 83%
- CLR reduced compared to healthy matched control ([2]; severe renal impairment): 82%
- Cmax higher compared to healthy matched control ([2]; severe renal impairment): 42%
- CL/F, geometric LS mean [2, 7]: 64.9 L/h
- Fe[urine]48 hr, geometric mean [2, 7]: 7.9%
- CL/F, geometric LS mean ([2]; Mild Renal Impairment): 43.6 L/h
- Fe[urine]48 hr, geometric mean ([2]; Mild Renal Impairment): 8.5%
- CL/F, geometric LS mean ([2]; Moderate Renal Impairment): 31.5 L/h
- Fe[urine]48 hr, geometric mean ([2]; Moderate Renal Impairment): 5.5%
- CL/F, geometric LS mean ([2]; Severe Renal Impairment): 35.5 L/h
- Fe[urine]48 hr, geometric mean ([2]; Severe Renal Impairment): 2.1%
- CL/F increase per one mL/min/1.73 m^2 increase in eGFR ([2]; slope of linear regression): ~0.8%
- AUC, mean ± SD (healthy subjects; single 200 mg): 2430 ± 974 ng·h/mL
- Maximum Mean Placebo Corrected Change from Baseline Diastolic BP (healthy subjects; single 200 mg): 2.42 mmHg
- Maximum Mean Placebo Corrected Change from Baseline RR interval (healthy subjects; single 200 mg): -84.36 ms
- Maximum Mean Placebo Corrected Change from Baseline Systolic BP (healthy subjects; single 200 mg): 2.20 mmHg
- upper limits of the 90% CIs of all QTcF mean differences from placebo (healthy subjects; single 200 mg and 400 mg): < 10 ms
- QTcF LS mean difference from placebo (healthy subjects; single 200 mg, 0.5 hour): 2.90 ms
- QTcF change from baseline, LS mean (healthy subjects; single 200 mg, 0.5 hour): 1.90 ms
- QTcF change from baseline, LS mean (healthy subjects; single 200 mg, 1 hour): 4.87 ms
- QTcF LS mean difference from placebo (healthy subjects; single 200 mg, 1 hour (maximum)): 4.98 (3.07, 6.88) msec and 4.98 msec
- QTcF LS mean difference from placebo (healthy subjects; single 200 mg, 2 hour): 2.14 ms
- QTcF change from baseline, LS mean (healthy subjects; single 200 mg, 2 hour): 2.06 ms
- QTcF LS mean difference from placebo (healthy subjects; single 200 mg, 3 hour): 0.40 ms
- QTcF change from baseline, LS mean (healthy subjects; single 200 mg, 3 hour): 1.14 ms
- QTcF LS mean difference from placebo (healthy subjects; single 200 mg, 4 hour): -0.83 ms
- QTcF change from baseline, LS mean (healthy subjects; single 200 mg, 4 hour): -0.40 ms
- QTcF LS mean difference from placebo (healthy subjects; single 200 mg, 6 hour): -1.26 ms
- QTcF change from baseline, LS mean (healthy subjects; single 200 mg, 6 hour): -6.89 ms
- QTcF LS mean difference from placebo (healthy subjects; single 200 mg, 8 hour): -1.24 ms
- QTcF change from baseline, LS mean (healthy subjects; single 200 mg, 8 hour): -9.59 ms
- QTcF LS mean difference from placebo (healthy subjects; single 200 mg, 10 hour): -2.67 ms
- QTcF change from baseline, LS mean (healthy subjects; single 200 mg, 10 hour): -8.82 ms
- QTcF LS mean difference from placebo (healthy subjects; single 200 mg, 12 hour): -3.72 ms
- QTcF change from baseline, LS mean (healthy subjects; single 200 mg, 12 hour): -6.82 ms
- QTcF LS mean difference from placebo (healthy subjects; single 200 mg, 23.5 hour): 0.38 ms
- QTcF change from baseline, LS mean (healthy subjects; single 200 mg, 23.5 hour): -2.15 ms
- AUC, mean ± SD (healthy subjects; single 400 mg): 6800 ± 2300 ng·h/mL
- Maximum Mean Placebo Corrected Change from Baseline Diastolic BP (healthy subjects; single 400 mg): 3.99 mmHg
- Maximum Mean Placebo Corrected Change from Baseline RR interval (healthy subjects; single 400 mg): -162.45 ms
- Maximum Mean Placebo Corrected Change from Baseline Systolic BP (healthy subjects; single 400 mg): 3.97 mmHg
- QTcF LS mean difference from placebo (healthy subjects; single 400 mg, 0.5 hour): 3.37 ms
- QTcF change from baseline, LS mean (healthy subjects; single 400 mg, 0.5 hour): 2.37 ms
- QTcF change from baseline, LS mean (healthy subjects; single 400 mg, 1 hour): 4.49 ms
- QTcF LS mean difference from placebo (healthy subjects; single 400 mg, 1 hour (maximum)): 4.60 (2.71, 6.48) msec and 4.60 msec
- QTcF LS mean difference from placebo (healthy subjects; single 400 mg, 2 hour): 0.81 ms
- QTcF change from baseline, LS mean (healthy subjects; single 400 mg, 2 hour): 0.73 ms
- QTcF LS mean difference from placebo (healthy subjects; single 400 mg, 3 hour): -1.04 ms
- QTcF change from baseline, LS mean (healthy subjects; single 400 mg, 3 hour): -0.30 ms
- QTcF LS mean difference from placebo (healthy subjects; single 400 mg, 4 hour): -2.96 ms
- QTcF change from baseline, LS mean (healthy subjects; single 400 mg, 4 hour): -2.53 ms
- QTcF LS mean difference from placebo (healthy subjects; single 400 mg, 6 hour): -2.70 ms
- QTcF change from baseline, LS mean (healthy subjects; single 400 mg, 6 hour): -8.33 ms
- QTcF LS mean difference from placebo (healthy subjects; single 400 mg, 8 hour): -3.24 ms
- QTcF change from baseline, LS mean (healthy subjects; single 400 mg, 8 hour): -11.60 ms
- QTcF LS mean difference from placebo (healthy subjects; single 400 mg, 10 hour): -4.14 ms
- QTcF change from baseline, LS mean (healthy subjects; single 400 mg, 10 hour): -10.29 ms
- QTcF LS mean difference from placebo (healthy subjects; single 400 mg, 12 hour): -4.00 ms
- QTcF change from baseline, LS mean (healthy subjects; single 400 mg, 12 hour): -7.10 ms
- QTcF LS mean difference from placebo (healthy subjects; single 400 mg, 23.5 hour): -0.34 ms
- QTcF change from baseline, LS mean (healthy subjects; single 400 mg, 23.5 hour): -2.87 ms
- effect on QTc or blood pressure (healthy subjects; thorough QT study): no clinically meaningful effect on QTc or blood pressure
- dose recovered in feces [3]: approximately 59%
- dose recovered in urine [3]: ~20%
- tolerability of vibegron and rifampin ([4]; healthy male and female subjects): well tolerated
- CL/F, geometric mean ([4]; Vibegron + Rifampin 600 mg QD): 57.3 L/h
- V/F, geometric mean ([4]; Vibegron + Rifampin 600 mg QD): 6140 L
- CL/F, geometric mean ([4]; Vibegron alone): 57.2 L/h
- V/F, geometric mean ([4]; Vibegron alone): 6930 L
- subjects with an AE related to study drug ([4]; vibegron 75 mg and rifampin 600 mg QD): 15%
